Results as given in PubChem BioAssay AID330 (DTP/NCI, 2004).
Several values for one entry are separate records, joined by “and”; a condition that tells them apart may be missing. Identical values can stand only once. Inconclusive results and toxic doses are left out.

Tested on: P388 leukemia ip, CD2F1 mice, survival T/C
Assay: NCI In Vivo Anticancer Drug Screen. Data for tumor model P388 Leukemia (intraperitoneal) in CD2F1 (CDF1) mice
Conditions: endpoint: median survival time, higher = longer survival
In short: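 Mice carrying the transplanted tumor received test compound or vehicle. Survival was recorded in each group, and the value is the treated-group measurement divided by that of the vehicle-treated control group.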

[1] = dose: 25.0 mg/kg/injection, schedule: Q01DX005 (ip), vehicle: Klucel (hydroxypropylcellulose) (HPC)
[2] = dose: 50.0 mg/kg/injection, schedule: Q01DX005 (ip), vehicle: Klucel (hydroxypropylcellulose) (HPC)
[3] = dose: 100.0 mg/kg/injection, schedule: Q01DX005 (ip), vehicle: Klucel (hydroxypropylcellulose) (HPC)
[4] = dose: 60.0 mg/kg/injection, schedule: Q01DX005 (ip), vehicle: saline with Tween-80
[5] = dose: 120.0 mg/kg/injection, schedule: Q01DX005 (ip), vehicle: saline with Tween-80
[6] = dose: 240.0 mg/kg/injection, schedule: Q01DX005 (ip), vehicle: saline with Tween-80
[7] = dose: 60.0 mg/kg/injection, schedule: Q01DX005 (ip), vehicle: Klucel (hydroxypropylcellulose) (HPC)
[8] = dose: 120.0 mg/kg/injection, schedule: Q01DX005 (ip), vehicle: Klucel (hydroxypropylcellulose) (HPC)
[9] = dose: 240.0 mg/kg/injection, schedule: Q01DX005 (ip), vehicle: Klucel (hydroxypropylcellulose) (HPC)
[10] = dose: 6.25 mg/kg/injection, schedule: Q01DX005 (ip), vehicle: Klucel (hydroxypropylcellulose) (HPC)
[11] = dose: 12.5 mg/kg/injection, schedule: Q01DX005 (ip), vehicle: Klucel (hydroxypropylcellulose) (HPC)
[12] = dose: 100.0 mg/kg/injection, schedule: Q01DX001 (ip), vehicle: saline with Tween-80
[13] = dose: 200.0 mg/kg/injection, schedule: Q01DX001 (ip), vehicle: saline with Tween-80
[14] = dose: 200.0 mg/kg/injection, schedule: Q01DX005 (ip), vehicle: Klucel (hydroxypropylcellulose) (HPC)
[15] = dose: 50.0 mg/kg/injection, schedule: Q01DX005 (ip), vehicle: saline with Tween-80
[16] = dose: 100.0 mg/kg/injection, schedule: Q01DX005 (ip), vehicle: saline with Tween-80

SMILES: COc1ccc2c(c1)CCC1C2CCC2(C)/C(=N/O)C3OC3C12 (stereo not given)
- T/C (dose: 12.5 mg/kg/injection, schedule: Q01DX009 (ip), vehicle: saline with Tween-80): 94 % of control and 95 % of control
- T/C (dose: 25.0 mg/kg/injection, schedule: Q01DX009 (ip), vehicle: saline with Tween-80): 110 % of control and 94 % of control
- T/C (dose: 50.0 mg/kg/injection, schedule: Q01DX009 (ip), vehicle: saline with Tween-80): 101 % of control and 94 % of control
- T/C (dose: 100.0 mg/kg/injection, schedule: Q01DX009 (ip), vehicle: saline with Tween-80): 101 % of control and 94 % of control

SMILES: O=C(Cc1ccccc1)c1ccccc1
- T/C (dose: 100.0 mg/kg/injection, schedule: Q04DX003 (ip), vehicle: saline with Tween-80): 98 % of control
- T/C (dose: 200.0 mg/kg/injection, schedule: Q04DX003 (ip), vehicle: saline with Tween-80): 100 % of control
- T/C (dose: 400.0 mg/kg/injection, schedule: Q04DX003 (ip), vehicle: saline with Tween-80): 100 % of control

SMILES: Cc1cccc(C)c1NC(=S)NC(=O)c1cccc(Cl)c1
- T/C [1]: 94 % of control
- T/C [2]: 92 % of control
- T/C [3]: 97 % of control

SMILES: CC(CN(C)C)C(=O)/C=C/c1c(Cl)cccc1Cl (stereo not given)
- T/C [4]: 111 % of control

SMILES: O=C(CNC(=O)c1ccccc1)N/N=C/c1c(O)ccc2ccccc12
- T/C [4]: 95 % of control
- T/C [5]: 93 % of control
- T/C [6]: 101 % of control

SMILES: Cc1ccc(S(=O)(=O)NNC(=O)CCn2[nH]c(=O)c(Cl)c(Cl)c2=O)cc1
- T/C [4]: 99 % of control
- T/C [5]: 103 % of control
- T/C [6]: 98 % of control

SMILES: O=c1[nH]c2ccccc2c2nc(-c3ccccc3)c3ccccc3c12
- T/C [7]: 96 % of control
- T/C [8]: 86 % of control
- T/C [9]: 91 % of control

SMILES: BrCC1C[n+]2c(cc(-c3ccccc3)cc2-c2ccccc2)S1 (stereo not given)
- T/C (dose: 3.75 mg/kg/injection, schedule: Q01DX005 (ip), vehicle: Klucel (hydroxypropylcellulose) (HPC)): 100 % of control
- T/C (dose: 7.5 mg/kg/injection, schedule: Q01DX005 (ip), vehicle: Klucel (hydroxypropylcellulose) (HPC)): 99 % of control

SMILES: COc1cccc(/C=N/Nc2cc(C)nc3cc4c(cc23)OCO4)c1
- T/C [10]: 104 % of control
- T/C [11]: 97 % of control
- T/C [1]: 100 % of control and 87 % of control
- T/C [2]: 100 % of control and 102 % of control and 96 % of control
- T/C [3]: 95 % of control

SMILES: COn1nnc2cc(Cl)ccc21
- T/C (dose: 100.0 mg/kg/injection, schedule: Q04DX002 (ip), vehicle: saline with Tween-80): 107 % of control
- T/C (dose: 200.0 mg/kg/injection, schedule: Q04DX002 (ip), vehicle: saline with Tween-80): 98 % of control
- T/C (dose: 400.0 mg/kg/injection, schedule: Q04DX002 (ip), vehicle: saline with Tween-80): 98 % of control

SMILES: Cc1c2c(c(C)c3c1C(=O)c1cc4c(cc1C3=O)OCO4)OC(C)O2
- T/C [4]: 89 % of control
- T/C [5]: 89 % of control
- T/C [6]: 91 % of control

SMILES: OCC1CC2CCCCN2O1 (stereo not given)
- T/C (dose: 25.0 mg/kg/injection, schedule: Q01DX005 (ip), vehicle: saline): 102 % of control
- T/C (dose: 50.0 mg/kg/injection, schedule: Q01DX005 (ip), vehicle: saline): 101 % of control
- T/C (dose: 100.0 mg/kg/injection, schedule: Q01DX005 (ip), vehicle: saline): 105 % of control
- T/C (dose: 200.0 mg/kg/injection, schedule: Q01DX005 (ip), vehicle: saline): 106 % of control

SMILES: CCN1c2ccccc2S(=O)(=O)n2c(Cc3ccccc3)nnc21
- T/C [12]: 93 % of control
- T/C [13]: 92 % of control

SMILES: CC(=O)Oc1ccccc1C(=O)OCc1ccccc1
- T/C [2]: 94 % of control
- T/C [3]: 92 % of control
- T/C [14]: 100 % of control

SMILES: Cn1c(=O)[nH]c(N)c(NC=O)c1=O
- T/C [15]: 103 % of control
- T/C [16]: 101 % of control
- T/C (dose: 200.0 mg/kg/injection, schedule: Q01DX005 (ip), vehicle: saline with Tween-80): 101 % of control

SMILES: C=C1C(=O)O[C@H]2CCC[C@@]12C
- T/C [12]: 103 % of control
- T/C [13]: 106 % of control
- T/C (dose: 400.0 mg/kg/injection, schedule: Q01DX001 (ip), vehicle: saline with Tween-80): 113 % of control

SMILES: COC(=O)C1C2CC3c4c(c5ccc(OC)cc5n4[N+](=O)[O-])CCN3CC2CC(OC(=O)c2cc(OC)c(OC)c(OC)c2)C1OC (stereo not given)
- T/C [11]: 96 % of control
- T/C [1]: 98 % of control
- T/C [2]: 104 % of control
- T/C [3]: 114 % of control
- T/C [14]: 88 % of control

SMILES: O=c1[nH]cnc2sc3c(c12)CCC3
- T/C [4]: 100 % of control
- T/C [5]: 88 % of control
- T/C [6]: 94 % of control

SMILES: CCCCCCCCCCCCC[N+]1(CC)CCCCC1
- T/C (dose: 0.78 mg/kg/injection, schedule: Q01DX009 (ip), vehicle: saline): 105 % of control
- T/C (dose: 1.56 mg/kg/injection, schedule: Q01DX009 (ip), vehicle: saline): 118 % of control
- T/C (dose: 3.12 mg/kg/injection, schedule: Q01DX009 (ip), vehicle: saline): 110 % of control

SMILES: CC1SC2(C(=O)N(CN3CCCCC3)c3ccccc32)N(c2ccccc2)C1=O (stereo not given)
- T/C [2]: 90 % of control
- T/C [3]: 100 % of control
- T/C [14]: 94 % of control

SMILES: CC1(C)CC(=O)C(CSc2ccccc2)C(=O)C1
- T/C (dose: 12.5 mg/kg/injection, schedule: Q01DX001 (ip), vehicle: saline): 108 % of control
- T/C (dose: 25.0 mg/kg/injection, schedule: Q01DX001 (ip), vehicle: Klucel (hydroxypropylcellulose) (HPC)): 100 % of control
- T/C (dose: 25.0 mg/kg/injection, schedule: Q01DX001 (ip), vehicle: saline): 111 % of control
- T/C (dose: 50.0 mg/kg/injection, schedule: Q01DX001 (ip), vehicle: Klucel (hydroxypropylcellulose) (HPC)): 100 % of control and 105 % of control
- T/C (dose: 50.0 mg/kg/injection, schedule: Q01DX001 (ip), vehicle: saline): 112 % of control
- T/C (dose: 100.0 mg/kg/injection, schedule: Q01DX001 (ip), vehicle: Klucel (hydroxypropylcellulose) (HPC)): 100 % of control

SMILES: CCc1cccc(C)c1NC(=O)C(=O)C(C#N)c1ccccc1 (stereo not given)
- T/C (dose: 60.0 mg/kg/injection, schedule: Q01DX005 (ip), vehicle: saline): 105 % of control
- T/C (dose: 120.0 mg/kg/injection, schedule: Q01DX005 (ip), vehicle: saline): 108 % of control
- T/C (dose: 240.0 mg/kg/injection, schedule: Q01DX005 (ip), vehicle: saline): 108 % of control

SMILES: O=C1CSC(c2cccs2)N1c1nncs1 (stereo not given)
- T/C [7]: 100 % of control
- T/C [8]: 100 % of control
- T/C [9]: 172 % of control

SMILES: CC(Cc1cccc2ccccc12)C(N)=O (stereo not given)
- T/C [2]: 100 % of control
- T/C [3]: 99 % of control
- T/C [14]: 99 % of control

SMILES: O=NN(CCCl)C(=O)NC1[C@H](O)CCC[C@@H]1O (stereo not given in full)
- T/C (dose: 0.63 mg/kg/injection, schedule: Q01DX005 (ip), vehicle: saline): 118 % of control
- T/C (dose: 2.5 mg/kg/injection, schedule: Q01DX005 (ip), vehicle: saline): 159 % of control
- T/C (dose: 5.0 mg/kg/injection, schedule: Q01DX005 (ip), vehicle: saline): 190 % of control and 267 % of control
- T/C (dose: 10.0 mg/kg/injection, schedule: Q01DX005 (ip), vehicle: saline): 116 % of control and 206 % of control

SMILES: CC(=O)Oc1cc2c(cc1OC(C)=O)C(=O)c1cc3c(cc1C2=O)OCO3
- T/C [4]: 107 % of control
- T/C [5]: 120 % of control
- T/C [6]: 108 % of control

SMILES: c1ccc(C(c2ccccc2)c2cc(-c3cc(C(c4ccccc4)c4ccccc4)[nH]n3)n[nH]2)cc1
- T/C (dose: 60.0 mg/kg/injection, schedule: Q01DX005 (ip), vehicle: distilled water + Tween-80): 97 % of control
- T/C (dose: 120.0 mg/kg/injection, schedule: Q01DX005 (ip), vehicle: distilled water + Tween-80): 102 % of control
- T/C (dose: 240.0 mg/kg/injection, schedule: Q01DX005 (ip), vehicle: distilled water + Tween-80): 102 % of control

SMILES: CCCCCCCCCCCC1=c2o[nH]c2=C(c2ccccn2)C(=O)C1=O
- T/C [15]: 94 % of control
- T/C [16]: 86 % of control

SMILES: COc1cc([C@@H]2c3cc4c(cc3[C@H](OC(=O)c3ccncc3)[C@H]3COC(=O)[C@H]23)OCO4)cc(OC)c1OC
- T/C [10]: 101 % of control
- T/C [11]: 104 % of control
- T/C [1]: 118 % of control

SMILES: CCNC(=O)CCC(NS(=O)(=O)c1ccc(C)cc1)C(=O)O (stereo not given)
- T/C (dose: 100.0 mg/kg/injection, schedule: Q04DX002 (ip), vehicle: Klucel (hydroxypropylcellulose) (HPC)): 100 % of control
- T/C (dose: 200.0 mg/kg/injection, schedule: Q04DX002 (ip), vehicle: Klucel (hydroxypropylcellulose) (HPC)): 100 % of control
- T/C (dose: 400.0 mg/kg/injection, schedule: Q04DX002 (ip), vehicle: Klucel (hydroxypropylcellulose) (HPC)): 105 % of control
